Measurements published in PubChem BioAssay AID248 (DTP/NCI, 2004).
Inconclusive results and toxic doses are left out. Cut-off read from the data, not from the text of the source: active = T/C of 150% or more; inactive = T/C below 125%. Peptide text beside a SMILES is read from it.

Test system: L1210 leukemia ip in BDF1 mice, survival T/C
Assay: NCI In Vivo Anticancer Drug Screen. Data for tumor model L1210 Leukemia (intraperitoneal) in B6D2F1 (BDF1) mice
Details: endpoint: mean survival time, higher = longer survival
How it was run: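 Survival endpoint. Drug-treated group vs vehicle group, expressed as T divided by C. Tumor passaged by transplantation.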

[1] = dose: 100.0 mg/kg/injection, schedule: Q04DX003 (ip), vehicle: saline with Tween-80
[2] = dose: 200.0 mg/kg/injection, schedule: Q04DX003 (ip), vehicle: saline with Tween-80
[3] = dose: 100.0 mg/kg/injection, schedule: Q04DX002 (ip), vehicle: Klucel (hydroxypropylcellulose) (HPC)
[4] = dose: 200.0 mg/kg/injection, schedule: Q04DX002 (ip), vehicle: Klucel (hydroxypropylcellulose) (HPC)
[5] = dose: 400.0 mg/kg/injection, schedule: Q04DX002 (ip), vehicle: Klucel (hydroxypropylcellulose) (HPC)
[6] = dose: 400.0 mg/kg/injection, schedule: Q04DX003 (ip), vehicle: saline with Tween-80
[7] = dose: 100.0 mg/kg/injection, schedule: Q04DX003 (ip), vehicle: Klucel (hydroxypropylcellulose) (HPC)
[8] = dose: 200.0 mg/kg/injection, schedule: Q04DX003 (ip), vehicle: Klucel (hydroxypropylcellulose) (HPC)
[9] = dose: 400.0 mg/kg/injection, schedule: Q04DX003 (ip), vehicle: Klucel (hydroxypropylcellulose) (HPC)
[10] = dose: 50.0 mg/kg/injection, schedule: Q01DX009 (ip), vehicle: saline with Tween-80
[11] = dose: 100.0 mg/kg/injection, schedule: Q01DX009 (ip), vehicle: saline with Tween-80
[12] = dose: 200.0 mg/kg/injection, schedule: Q01DX009 (ip), vehicle: saline with Tween-80
[13] = dose: 25.0 mg/kg/injection, schedule: Q04DX003 (ip), vehicle: Klucel (hydroxypropylcellulose) (HPC)
[14] = dose: 100.0 mg/kg/injection, schedule: Q01DX009 (ip), vehicle: saline
[15] = dose: 100.0 mg/kg/injection, schedule: Q04DX003 (ip), vehicle: saline
[16] = dose: 200.0 mg/kg/injection, schedule: Q01DX009 (ip), vehicle: saline
[17] = dose: 200.0 mg/kg/injection, schedule: Q04DX003 (ip), vehicle: saline
[18] = dose: 400.0 mg/kg/injection, schedule: Q01DX009 (ip), vehicle: saline
[19] = dose: 400.0 mg/kg/injection, schedule: Q04DX003 (ip), vehicle: saline
[20] = dose: 50.0 mg/kg/injection, schedule: Q01DX009 (ip), vehicle: saline
[21] = dose: 100.0 mg/kg/injection, schedule: Q01DX001 (ip), vehicle: Klucel (hydroxypropylcellulose) (HPC)
[22] = dose: 200.0 mg/kg/injection, schedule: Q01DX001 (ip), vehicle: Klucel (hydroxypropylcellulose) (HPC)
[23] = dose: 400.0 mg/kg/injection, schedule: Q01DX001 (ip), vehicle: Klucel (hydroxypropylcellulose) (HPC)

Measured: T/C

O=[N+]([O-])c1ccc(C=Nc2cc(Cl)ccc2Cl)s1
inactive: [1] 98 % of control | [2] 88 % of control

O/N=C/c1nc2ccccc2[nH]1
inactive: dose: 75.0 mg/kg/injection, schedule: Q01DX001 (ip), vehicle: other 90 % of control | dose: 150.0 mg/kg/injection, schedule: Q01DX001 (ip), vehicle: other 90 % of control | dose: 300.0 mg/kg/injection, schedule: Q01DX001 (ip), vehicle: other 95 % of control

COc1ccc(Cl)cc1NC(=S)Nc1ccccc1
inactive: [3] 90 % of control | [4] 101 % of control | [5] 101 % of control

CC(=O)N(C)CC(O)C(O)C(O)C(O)CO (stereo unspecified)
inactive: [1] 100 % of control | [2] 94 % of control | [6] 96 % of control

CCN(C(=O)c1cc(OC)c(OC)c(OC)c1)C1CCCCC1
inactive: [1] 101 % of control | [2] 107 % of control | [6] 96 % of control

Fc1ccccc1NC1=NCCO1
inactive: [7] 101 % of control | [8] 95 % of control | [9] 92 % of control

Cc1ccc2c(c1)CCCN2C=O
inactive: [10] 95 % of control | [11] 93 % of control | [1] 102 % of control | [12] 102 % of control | [2] 94 % of control

CC1([CH2][Hg][Cl])Cc2ccccc2O1 (stereo unspecified)
inactive: dose: 6.25 mg/kg/injection, schedule: Q04DX003 (ip), vehicle: saline with Tween-80 96 % of control

NNC(=O)c1cccc([N+](=O)[O-])c1
inactive: dose: 12.5 mg/kg/injection, schedule: Q04DX003 (ip), vehicle: Klucel (hydroxypropylcellulose) (HPC) 100 % of control | [13] 96 % of control

CCC1(c2ccccc2)NC(=O)NC1=O (stereo unspecified)
inactive: [11] 102 % of control | [12] 100 % of control

CN1CCN(C(=O)c2ccccc2C(=O)O)CC1
inactive: dose: 100.0 mg/kg/injection, schedule: Q01DX001 (ip), vehicle: saline 101 % of control | dose: 200.0 mg/kg/injection, schedule: Q01DX001 (ip), vehicle: saline 96 % of control

COC1COC(OC)C(OS(C)(=O)=O)C1OC (stereo unspecified)
inactive: dose: 100.0 mg/kg/injection, schedule: Q01DX001 (ip), vehicle: carboxymethylcellulose (CMC) 106 % of control | dose: 200.0 mg/kg/injection, schedule: Q01DX001 (ip), vehicle: carboxymethylcellulose (CMC) 98 % of control | dose: 400.0 mg/kg/injection, schedule: Q01DX001 (ip), vehicle: carboxymethylcellulose (CMC) 101 % of control

CCCCCCCCCCCCO
inactive: dose: 100.0 mg/kg/injection, schedule: Q01DX009 (ip), vehicle: Klucel (hydroxypropylcellulose) (HPC) 88 % of control | dose: 200.0 mg/kg/injection, schedule: Q01DX009 (ip), vehicle: Klucel (hydroxypropylcellulose) (HPC) 96 % of control

O=C1OC(c2ccc([N+](=O)[O-])cc2)Sc2ccccc21 (stereo unspecified)
inactive: [14] 98 % of control | [15] 106 % of control | [16] 94 % of control | [17] 108 % of control | [18] 91 % of control | [19] 97 % of control

COc1cc(CCN)cc(OC)c1OC
inactive: dose: 75.0 mg/kg/injection, schedule: Q01DX001 (ip), vehicle: saline 104 % of control | dose: 150.0 mg/kg/injection, schedule: Q01DX001 (ip), vehicle: saline 103 % of control | dose: 300.0 mg/kg/injection, schedule: Q01DX001 (ip), vehicle: saline 104 % of control

CSCCC(NC(C)=O)C(=O)O (stereo unspecified)
inactive: [14] 99 % of control | [15] 94 % of control | [16] 86 % of control | [17] 91 % of control | [18] 96 % of control | [19] 91 % of control

CC(=O)Oc1c(Cl)c(Cl)c(Cl)c(Cl)c1Cl
inactive: dose: 100.0 mg/kg/injection, schedule: Q01DX009 (ip), vehicle: saline sonified 101 % of control | [7] 100 % of control | dose: 200.0 mg/kg/injection, schedule: Q01DX009 (ip), vehicle: saline sonified 107 % of control | [8] 100 % of control | dose: 400.0 mg/kg/injection, schedule: Q01DX009 (ip), vehicle: saline sonified 106 % of control | [9] 93 % of control

CC(=O)Nc1ccc(NC(=O)Nc2ccc(F)c(Cl)c2)cc1
inactive: [7] 92 % of control | [8] 97 % of control | [9] 95 % of control

CC(C)(C)N1CCC1C(=O)NN (stereo unspecified)
inactive: [20] 96 % of control | [14] 93 % of control | [16] 93 % of control

OC1OC(CF)C(O)C(O)C1O (stereo unspecified)
inactive: [15] 104 % of control | [17] 115 % of control | [19] 118 % of control

CC(=O)NC(CO)C(=O)NCC(=O)NC(CCCN=C(N)N)C(N)=O (stereo not drawn) (Ac-Ser-Gly-Arg-NH2; configuration not given here)
inactive: dose: 25.0 mg/kg/injection, schedule: Q04DX002 (ip), vehicle: Klucel (hydroxypropylcellulose) (HPC) 100 % of control | dose: 50.0 mg/kg/injection, schedule: Q04DX002 (ip), vehicle: Klucel (hydroxypropylcellulose) (HPC) 100 % of control | [3] 100 % of control

C/C=C1/C(=O)Oc2ccccc21
inactive: [20] 97 % of control | [14] 102 % of control | [16] 94 % of control

Nc1cc(S(=O)(=O)O)cc2cc(S(=O)(=O)O)cc(S(=O)(=O)O)c12
inactive: [14] 107 % of control | [16] 104 % of control | [18] 100 % of control

Cc1nc2c3nc(C)oc3c3ccccc3c2o1
inactive: [21] 97 % of control | [22] 89 % of control | [23] 86 % of control

O=C(O)/C=C/c1ccccc1Cl
inactive: [13] 94 % of control | dose: 50.0 mg/kg/injection, schedule: Q04DX003 (ip), vehicle: Klucel (hydroxypropylcellulose) (HPC) 103 % of control | [7] 96 % of control

Cc1cccc(Cl)c1NC(=S)Nc1ccccc1
inactive: [3] 101 % of control | [4] 94 % of control | [5] 97 % of control

CCC(C)NC(=O)Oc1cccc(NC(=O)OC)c1 (stereo unspecified)
inactive: [1] 95 % of control | [2] 93 % of control | [6] 92 % of control

ClCc1c(CCl)c2c(c3c1CCCC3)CCCC2
inactive: [7] 100 % of control | [8] 100 % of control | [9] 103 % of control

CC12CC3CC(C)(C1)CC(SCCN)(C3)C2
inactive: dose: 100.0 mg/kg/injection, schedule: Q04DX002 (ip), vehicle: saline 97 % of control | dose: 200.0 mg/kg/injection, schedule: Q04DX002 (ip), vehicle: saline 97 % of control

C=CCOc1nc(SC)ncc1C(=O)O
inactive: [21] 97 % of control | [22] 97 % of control | [23] 91 % of control

Nc1cc(Nc2ccccc2)nc(=O)[nH]1
inactive: [21] 94 % of control | [22] 97 % of control

C[n+]1cccc(SC2CCC3CC4CC3C2C4)c1 (stereo unspecified)
inactive: [10] 91 % of control
